Measurements published in patent US7049396B2, “Synthetic peptides that inhibit leukocyte superoxide anion production and/or attract leukocytes” (priority 1995, dated 2006).
Values after ≈ are worked out from the molar mass of the structure shown. Like-named read-outs stand apart in the source and are kept apart here. Where a SMILES comes first, the peptide text is derived from it.

Legend:
[1] = target: T1, cell-free NADPH oxidase (human neutrophil cytosol and membranes) (Homo sapiens, UniProt P14598); assay: Cell-free O2- production assay; assay type: biochemical
T1 construct: 10^6 cell equivalents of human neutrophil cytosol; from tissue; host or cells: human peripheral blood neutrophils (cytosol and deoxycholate-solubilized membranes)
T1 sequence (P14598 1-390): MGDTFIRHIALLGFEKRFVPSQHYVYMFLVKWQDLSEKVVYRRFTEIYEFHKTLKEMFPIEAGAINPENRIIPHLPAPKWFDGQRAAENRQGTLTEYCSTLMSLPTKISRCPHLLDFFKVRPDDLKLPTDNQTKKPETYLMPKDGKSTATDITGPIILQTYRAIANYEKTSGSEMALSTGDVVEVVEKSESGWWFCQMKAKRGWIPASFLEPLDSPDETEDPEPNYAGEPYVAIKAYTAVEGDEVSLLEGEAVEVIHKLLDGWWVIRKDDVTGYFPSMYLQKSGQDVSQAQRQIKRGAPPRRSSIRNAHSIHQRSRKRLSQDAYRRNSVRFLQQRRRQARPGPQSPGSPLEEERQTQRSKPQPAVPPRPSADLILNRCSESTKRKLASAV
Procedure: Reactions (100 μl) contained 10^6 cell equivalents of human neutrophil cytosol and 5×10^5 cell equivalents of deoxycholate-solubilized membranes prepared from human peripheral blood neutrophils. […] Control reactions contained 5 μg of superoxide dismutase. Superoxide anion generation was calculated based on superoxide dismutase-inhibitable changes in cytochrome c absorbance observed at 551 nm. The reactions were followed for 20 min. after addition of arachidonic acid, with absorbance readings taken at 1-min. intervals. […] Determinations were based on reactions performed in duplicate. • (ii) Binding assays. Neutrophils were disrupted by sonication, and unbroken cells, debris, and granules were removed by centrifuigation (13,000×g for 60 min.). Cytosol fractions were prepared by centrifugation (100,000 g for 45 min.) of the supernatants to remove residual membranes. Cytosolic proteins (15 μg in reducing buffer) were separated on a 7.5% SDS PAGE gel, transferred to PVDF membranes, and probed with biotinylated PR-39 (0.3 μM) for 2 hr. Binding between PR-39 and cytosolic proteins were visualized by a chemiluminescent streptavidin alkaline phosphatase system using an Epson scanner (Torrance, Calif.) and the NIH Image program. PR-39 was labeled with biotin hydrazide at the carboxy-terminus (Pierce Chemical Co., Rockford, Ill.) and purified by gel filtration chromatography.

S. typhimurium = assay: Survival of mice after oral S. typhimurium challenge (first experiment); assay type: in vivo, A/J mice; settings: 100 or 250 μg/mouse
Procedure: Effect of PR-26 on survival of mice challenged with S. typhimurium. Three separate S. typhimurium challenge studies were conducted with mice. In the first experiment, 45 A/J mice (Jackson Labs, Bar Harbor, Me.) were orally challenged with S. typhimurium. Feed was withdrawn 4 hrs. prior to an oral inoculation. Twenty min. prior to the inoculation with S. typhimurium mice were given a 30 μl dose of a 10% sodium bicarbonate solution in PBS. S. typhimurium, strain KSU007, was started in brain heart infusion broth overnight and then grown for 6 hrs. in Luria Broth Base (GIBCO, Gaithersburg, Md.). After centrifugation, bacteria were suspended in a 1% gelatin solution (final concentration 1.24×10^10 S. typhimurium/ml), and then 25 μl were given orally. Immediately following oral inoculation with S. typhimurium, mice were given 0, 100, or 250 μg of PR-26 in PBS. A second dose of PR-26 or PBS was given 4 hrs. later.

Salmonella choleraesuis = assay type: cell-based
Procedure: (§1) Plates were incubated at 37° C. for 18 hr. […] Viable bacteria were counted. Tests were repeated on three different days. […] The results were expressed as the mean ± standard deviation. […] S. choleraesuis, ATCC 6962 was used in this experiment. […] Slides were stained with LeukoStat solutions (Fisher, Pittsburgh, Pa.). […] At least 200 neutrophils were examined. […] Tests were repeated on three different days. Results were expressed as the mean±standard deviation.

Streptococcus suis = assay: MIC/MBC microdilution broth method; assay type: cell-based
Procedure: as §1

Staphylococcus aureus = assay: MIC/MBC microdilution broth method; assay type: cell-based
Procedure: as §1

Escherichia coli, 25922 = assay: MIC/MBC microdilution broth method; assay type: cell-based
Procedure: as §1

Salmonella typhimurium = assay: MIC/MBC microdilution broth method; assay type: cell-based; settings: murium
Procedure: as §1

[2] = system: S. typhimurium, KSU isolate 7; assay: Lawn-spotting antibacterial assay (S. typhimurium); assay type: cell-based, Salmonella typhimurium; settings: 5 μl spotted, inactive segments up to 1 mg/ml
[3] = system: whole-cell NADPH oxidase activity of porcine peripheral blood neutrophils; assay: Whole-cell O2- production, ferricytochrome c reduction; assay type: cell-based; settings: incubated 150 min. before PMA stimulation
Procedure: Regulation of neutrophil O2^− production by PR-26 and PR-39. • (i) O2^− production assays. Whole-cell O2^− production by por-cine peripheral blood neutrophils was determined by the superoxide dismutase-inhibitable reduction of ferricytochrome c as previously described (Shi et al., 1994a). Cell-free O2^− production was measured as previously described (Leto et al., 1991) using 96-well plates and a Molecular Devices Thermomax microplate reader (Menlo Park, Calif.). Reactions (100 μl) contained 10^6 cell equivalents of human neutrophil cytosol and 5×10^5 cell equivalents of deoxycholate-solubilized membranes prepared from human peripheral blood neutrophils. Reaction mixtures contained 50 mM potassium phosphate (pH 7), 0.2 mM acetylated cytochrome c, 4 mM MgCl2, 1 mM EGTA, 10 μM FAD, 1 μM GTP-γS, and 200 μM NADPH. The reactions were initiated by addition of 40 μM arachidonic acid. Control reactions contained 5 μg of superoxide dismutase. Superoxide anion generation was calculated based on superoxide dismutase-inhibitable changes in cytochrome c absorbance observed at 551 nm. The reactions were followed for 20 min. after addition of arachidonic acid, with absorbance readings taken at 1-min. intervals. Maximum rates of superoxide generation were calculated from a linear least squares fit of 10 consecutive 1-min. data points. Determinations were based on reactions performed in duplicate. • (ii) Binding assays. Neutrophils were disrupted by sonication, and unbroken cells, debris, and granules were removed by centrifuigation (13,000×g for 60 min.). Cytosol fractions were prepared by centrifugation (100,000 g for 45 min.) of the supernatants to remove residual membranes. Cytosolic proteins (15 μg in reducing buffer) were separated on a 7.5% SDS PAGE gel, transferred to PVDF membranes, and probed with biotinylated PR-39 (0.3 μM) for 2 hr. Binding between PR-39 and cytosolic proteins were visualized by a chemiluminescent streptavidin alkaline phosphatase system using an Epson scanner (Torrance, Calif.) and the NIH Image program. PR-39 was labeled with biotin hydrazide at the carboxy-terminus (Pierce Chemical Co., Rockford, Ill.) and purified by gel filtration chromatography.

E. coli, ATTC 25922 = assay: Lawn-spotting antibacterial assay (E. coli); assay type: cell-based, Escherichia coli; settings: 5 μl spotted, inactive segments up to 1 mg/ml
E. coli, ATCC 25922 = assay: Gel-overlay antibacterial assay; assay type: cell-based, Escherichia coli; settings: 10 μg peptide per lane, AU-PAGE gel overlaid with E. coli, 18 hr
porcine neutrophils = assay: Neutrophil chemotaxis, modified Boyden chamber; assay type: cell-based; settings: peptide at 1 μM, 30 min
Procedure: Influence of PR-39 on neutrophil chemotaxis. Chemotaxis of porcine neutrophils was measured by the procedure of Salak et al. (1993). Briefly, PR-14, PR15, PR-16, PR-26, or PR-39 (30 μl in Dulbecco's Modified Eagle's medium) were placed in the bottom chamber of a modified Boyden chamber (Neuro Probe, Cabin John, Md.) and porcine neutrophils (50 μl at 5×10^6 cells/ml) were placed in the top chamber. The chambers were incubated at 37° C. for 30 min. Cells that migrated through the porous membrane (pore size 5 μm) were stained using LeukoStat solution and enumerated. Five microscope fields were counted and the cells that migrated through the membrane were standardized to the medium control and referred to as the migration index.

[4] = cell-free assay, read-out: IC50 of O2- generation

Procedure for Escherichia coli, K88: Briefly, 50 μl of twofold serial dilutions (128 to 0.25 μM) of synthetic peptides were dispensed into wells of 96-well tissue culture plates. Bacteria (E. coli, ATCC 25922; E. coli, K88; S. typhimurium, fresh isolate from a dog; Salmonella choleraesuis ATCC 6962; Streptococcus suis, fresh isolate from porcine spleen; and Staphylococcus aureus) from sheep-blood or brain-heart-infusion agar plates were standardized to 0.5 McFarland in demineralized water using a radiometer/sensititre (Chelsea Instrument Ltd., England). The water/bacteria suspension (100 μl) was immediately transferred to 10 ml of cation-adjusted Muller-Hinton broth and 50 μl of the bacterial suspension then were added to each well of the microtiter plate. Plates were incubated for 20 hr. at 37° C. and MICs were determined. Ten microliters of bacterial suspensions in Muller-Hinton broth also were diluted to determine the actual bacterial concentration using standard colony forming unit (CFU) counting. After determination of the MICs, 10 μl of each bacteria-peptide suspension were plated on sheep-blood or brain-heart-infusion agar plates and incubated for 24 hr. at 37° C. to determine the MBCs. MBC was considered that peptide concentration that inhibited 99.9% of the original CFUs (NCCLS, 1990). • (iv) PAE.

Compound	IC50 [1, 4] [µM]	antibacterial activity (clear zone on bacterial lawn) [2]	O2- generation by intact neutrophils [3]	antibacterial activity (clear zone on bacterial lawn) (E. coli, ATTC 25922)	antibacterial activity (clear zones on overlaid gel) (E. coli, ATCC 25922)	neutrophil chemotaxis (migration index) (porcine neutrophils)	effect on O2- generation ([1]; cell-free assay)	other results
CC(C)C[C@H](NC(=O)[C@H](Cc1ccc(O)cc1)NC(=O)[C@@H]1CCCN1C(=O)[C@@H]1CCCN1C(=O)[C@H](CCCNC(=N)N)NC(=O)[C@@H]1CCCN1C(=O)[C@H](CCCNC(=N)N)NC(=O)[C@H](CCCNC(=N)N)NC(=O)[C@@H](N)CCCNC(=N)N)C(=O)N1CCC[C@H]1C(=O)N[C@@H](CCCNC(=N)N)C(=O)N1CCC[C@H]1C(=O)N[C@@H](CCCNC(=N)N)C(=O)N1CCC[C@H]1C(=O)N1CCC[C@H]1C(=O)N1CCC[C@H]1C(=O)N[C@@H](Cc1ccccc1)C(=O)N[C@@H](Cc1ccccc1)C(=O)N1CCC[C@H]1C(=O)O [PR-19] (H-RRRPRPPYLPRPRPPPFFP-OH)	~5							
CC[C@H](C)[C@H](NC(=O)[C@H](CCCNC(=N)N)NC(=O)[C@@H]1CCCN1C(=O)[C@@H]1CCCN1C(=O)[C@H](CC(C)C)NC(=O)[C@H](CCCNC(=N)N)NC(=O)[C@@H]1CCCN1C(=O)[C@@H]1CCCN1C(=O)[C@H](Cc1ccccc1)NC(=O)[C@H](Cc1ccccc1)NC(=O)[C@@H]1CCCN1C(=O)[C@@H]1CCCN1C(=O)[C@@H]1CCCN1C(=O)[C@H](CCCNC(=N)N)NC(=O)[C@@H]1CCCN1C(=O)[C@H](CCCNC(=N)N)NC(=O)[C@@H]1CCCN1C(=O)[C@H](CC(C)C)NC(=O)[C@H](Cc1ccc(O)cc1)NC(=O)[C@@H]1CCCN1C(=O)[C@@H]1CCCN1C(=O)[C@H](CCCNC(=N)N)NC(=O)[C@@H]1CCCN1)C(=O)O [PR-23] (H-PRPPYLPRPRPPPFFPPRLPPRI-OH)	~25							
CC[C@H](C)[C@H](NC(=O)[C@H](CCCNC(=N)N)NC(=O)[C@@H]1CCCN1C(=O)[C@@H]1CCCN1C(=O)[C@H](CC(C)C)NC(=O)[C@H](CCCNC(=N)N)NC(=O)[C@@H]1CCCN1C(=O)[C@@H]1CCCN1C(=O)[C@H](Cc1ccccc1)NC(=O)[C@H](Cc1ccccc1)NC(=O)[C@@H]1CCCN1C(=O)[C@@H]1CCCN1C(=O)[C@@H]1CCCN1C(=O)[C@H](CCCNC(=N)N)NC(=O)[C@@H]1CCCN1C(=O)[C@H](CCCNC(=N)N)NC(=O)[C@@H]1CCCN1C(=O)[C@H](CC(C)C)NC(=O)[C@H](Cc1ccc(O)cc1)NC(=O)[C@@H]1CCCN1C(=O)[C@@H]1CCCN1C(=O)[C@H](CCCNC(=N)N)NC(=O)[C@@H]1CCCN1C(=O)[C@H](CCCNC(=N)N)NC(=O)[C@H](CCCNC(=N)N)NC(=O)[C@@H](N)CCCNC(=N)N)C(=O)O [PR-26] (H-RRRPRPPYLPRPRPPPFFPPRLPPRI-OH)								toxicity in mice (S. typhimurium): no evidence of toxicity; IC50 [1]: ~1 µM; MBC (Salmonella choleraesuis): 2 µM (≈ 6.46 µg/mL); MIC (Salmonella choleraesuis): 1 µM (≈ 3.23 µg/mL); MBC (Streptococcus suis): >64 µM; MIC (Streptococcus suis): 16 µM (≈ 51.7 µg/mL); MIC (Staphylococcus aureus): >250 µM; MBC (Escherichia coli, 25922): 8 µM (≈ 25.8 µg/mL); MIC (Escherichia coli, 25922): 2 µM (≈ 6.46 µg/mL); MBC (Salmonella typhimurium): 2 µM (≈ 6.46 µg/mL); MIC (Salmonella typhimurium): 2 µM (≈ 6.46 µg/mL); MBC (Escherichia coli, K88): 4 µM (≈ 12.9 µg/mL); MIC (Escherichia coli, K88): 1 µM (≈ 3.23 µg/mL)
PR-14: NH2-terminal segment 1 to 14 of PR-39; Sequence ID No. 7 (RRRPRPPYLPRPRP)		no antibacterial activity	did not significantly reduce	no antibacterial activity	only PR-26 and PR-39 were found to have antibacterial activity	chemotactic agents		concentrations at which O2- generation was reduced ([1]; cell-free assay): greater than 25 μM
PR-15: COOH-terminal segment 25 to 39 of PR-39; Sequence ID No. 6 (RIPPGFPPRFPPRFP)		no antibacterial activity	did not significantly reduce	no antibacterial activity	only PR-26 and PR-39 were found to have antibacterial activity	chemotactic agents	did not affect	
PR-16: central segment 11 to 26 of PR-39; Sequence ID No. 5 (RPRPPPFFPPRLPPRI)		no antibacterial activity	did not significantly reduce	no antibacterial activity	only PR-26 and PR-39 were found to have antibacterial activity	chemotactic agents	did not affect	
